Laboratory results: patent US11534412B2, “Application of totarol and pharmaceutical composition containing totarol” (Emergopharm SP. Z O.O. SP.K., priority 2017, dated 2022)

Tested on: Enterococcus faecalis - clinical strain
Assay: Determination of the MIC value of totarol, broth dilution in 96-well plates with OD and quantitative culture
Type: cell-based
Conditions: for OD, average of 3 measurements: 620 nm
Protocol: Test of antibacterial activity of totarol using DMI (dimethylisosorbide) as a solvent.
1 ml of the suspension was collected to 9 ml of a TSB broth ([…]). Suspensions with a dilution of 10^−6 were prepared in the described way. A suspension with a cell density of 10^5 cfu/ml was selected for further investigations. For each strain, 2 96-well plates were prepared: the first one was intended for the OD measurement, the second one—for quantitative culture on solid media. • A/ to wells B1-D1, B2-D2 and B-D 4-11, 100 µl of the broth were added; • B/ to wells B3-D3, 200 µl of the broth were added; • C/ to wells B1-D1, 1 µl of stock I was added; • D/ to wells B2-D2, 1 µl of stock II was added; • E/ to wells B3-D3, 2 µl of stock III were added. Using a multichannel pipette, 100 µl of the sample were collected from each of the B3-D3 wells and placed in wells B4-D4 (mixing by sucking the content in and letting it out for 5 times). The pipette tips were replaced and 100 µl of the content were collected from of the B4-D4 wells, and placed in wells B5-D5, mixing as previously. These operations were repeated through the wells B11-D11. The content in the B11-D11 wells was mixed, and 100 µl of the fluid were collected and discarded. This way, a series of dilutions of totarol samples in DMI in the range of 0.32% to 0.0004% was obtained. Then, 100 µl of a corresponding bacterial culture were added to the wells B, C, D 1-11. In consequence, a change in the final concentration range occurred, to 0.16%-0.0002%. Control Preparation: • Negative control: 100 µl of the broth+1 pl DMI were added to the Al well. • Positive control (I): 100 µl of the broth with the bacterial culture were added to the wells E1-G1. • Diluent positive control (II): 100 µl of the broth with the bacterial culture+1 pl DMI were added to the wells E2-G2. The OD value in the individual wells was read at the wavelength of 620 nm (read time 0). From the second 96-well plate, a culture was inoculated by a quantitative method from every dilution onto a well with a proper solid medium, and incubated for 24 h at 37° C. under aerobic or anaerobic conditions, depending on the strain. The plates were incubated under aerobic conditions or in an atmosphere of an elevated CO2 concentration (for the strains requiring it) in an incubator at 37° C. The OD was read after 8 h, 16 h, and 24 h, respectively. Before every OD measurement, the contents of the wells were mixed delicately. In parallel to the OD readout, cultures we inoculated from the second 96-well plate, from every dilution, into plates with a proper solid medium, and incubated for 24 h at 37° C., under aerobic or anaerobic conditions. For the analysis of the experimental results, an average value of the OD measurement obtained from three repetitions in the individual times (0, 8, 16, and 24 h) for the individual microbes (Gardnerella vaginalis, Streptococcus agalactiae, Enterococcus faecalis, Lactobacillus gasseri/plantarum) was taken. Additionally, the number of bacteria grown on solid media was taken into account. The results of the tests confirm the specific, concentration-dependent selectiveness, and the high antibacterial effectiveness of totarol against the pathogenic microorganisms: Gardnerella vaginalis, Streptococcus agalactiae, Enterococcus faecalis at low MIC values safe for bacteria of the Lactobacillus genus.

In the case of `CC(C)c1c(O)ccc2c1CC[C@H]1C(C)(C)CCC[C@]21C` [Totarol, totarol], the MIC value (E. faecalis) is reported as 0.0025%, the Inoculation cfu/ml (totarol 0.0002%, 0 h) is reported as 4 × 10^5 cfu/ml and the “OD, average of 3 measurements” value (totarol 0.0002%, 0 h) is reported as 0.292. For the same molecule, the Inoculation cfu/ml (totarol 0.0002%, 8 h) was 4.1 × 10^5 cfu/ml, the “OD, average of 3 measurements” value (totarol 0.0002%, 8 h) was 0.295 and the Inoculation cfu/ml (totarol 0.0002%, 16 h) was 2.1 × 10^6 cfu/ml. For the same molecule, the “OD, average of 3 measurements” value (totarol 0.0002%, 16 h) was 0.490, the Inoculation cfu/ml (totarol 0.0002%, 24 h) was 1.6 × 10^7 cfu/ml and the “OD, average of 3 measurements” value (totarol 0.0002%, 24 h) was 0.681. The Inoculation cfu/ml (totarol 0.0004%, 0 h) was 3 × 10^5 cfu/ml, the “OD, average of 3 measurements” value (totarol 0.0004%, 0 h) was 0.298 and the Inoculation cfu/ml (totarol 0.0004%, 8 h) was 2.1 × 10^5 cfu/ml. The “OD, average of 3 measurements” value (totarol 0.0004%, 8 h) was 0.303, the Inoculation cfu/ml (totarol 0.0004%, 16 h) was 1.1 × 10^6 cfu/ml and the “OD, average of 3 measurements” value (totarol 0.0004%, 16 h) was 0.491. The Inoculation cfu/ml (totarol 0.0004%, 24 h) was 1.9 × 10^7 cfu/ml, the “OD, average of 3 measurements” value (totarol 0.0004%, 24 h) was 0.677 and the Inoculation cfu/ml (totarol 0.0007%, 0 h) was 2.5 × 10^5 cfu/ml. For the same molecule, the “OD, average of 3 measurements” value (totarol 0.0007%, 0 h) was 0.288, the Inoculation cfu/ml (totarol 0.0007%, 8 h) was 3.1 × 10^5 cfu/ml and the “OD, average of 3 measurements” value (totarol 0.0007%, 8 h) was 0.291. For the same molecule, the Inoculation cfu/ml (totarol 0.0007%, 16 h) was 3.8 × 10^5 cfu/ml, the “OD, average of 3 measurements” value (totarol 0.0007%, 16 h) was 0.445 and the Inoculation cfu/ml (totarol 0.0007%, 24 h) was 2.1 × 10^7 cfu/ml. The “OD, average of 3 measurements” value (totarol 0.0007%, 24 h) was 0.602, the Inoculation cfu/ml (totarol 0.0013%, 0 h) was 4 × 10^5 cfu/ml and the “OD, average of 3 measurements” value (totarol 0.0013%, 0 h) was 0.293. The Inoculation cfu/ml (totarol 0.0013%, 8 h) was 6 × 10^4 cfu/ml, the “OD, average of 3 measurements” value (totarol 0.0013%, 8 h) was 0.297 and the Inoculation cfu/ml (totarol 0.0013%, 16 h) was 6 × 10^4 cfu/ml. The “OD, average of 3 measurements” value (totarol 0.0013%, 16 h) was 0.399, the Inoculation cfu/ml (totarol 0.0013%, 24 h) was 1 × 10^7 cfu/ml and the “OD, average of 3 measurements” value (totarol 0.0013%, 24 h) was 0.549. The Inoculation cfu/ml (totarol 0.0025%, 0 h) was 5 × 10^5 cfu/ml, the “OD, average of 3 measurements” value (totarol 0.0025%, 0 h) was 0.284 and the Inoculation cfu/ml (totarol 0.0025%, 8 h) was 0 cfu/ml. For the same molecule, the “OD, average of 3 measurements” value (totarol 0.0025%, 8 h) was 0.297, the Inoculation cfu/ml (totarol 0.0025%, 16 h) was 0 cfu/ml and the “OD, average of 3 measurements” value (totarol 0.0025%, 16 h) was 0.295. For the same molecule, the Inoculation cfu/ml (totarol 0.0025%, 24 h) was 0 cfu/ml, the “OD, average of 3 measurements” value (totarol 0.0025%, 24 h) was 0.302 and the Inoculation cfu/ml (totarol 0.005%, 0 h) was 6 × 10^5 cfu/ml. The “OD, average of 3 measurements” value (totarol 0.005%, 0 h) was 0.302, the Inoculation cfu/ml (totarol 0.005%, 8 h) was 0 cfu/ml and the “OD, average of 3 measurements” value (totarol 0.005%, 8 h) was 0.349. The Inoculation cfu/ml (totarol 0.005%, 16 h) was 0 cfu/ml, the “OD, average of 3 measurements” value (totarol 0.005%, 16 h) was 0.320 and the Inoculation cfu/ml (totarol 0.005%, 24 h) was 0 cfu/ml. The “OD, average of 3 measurements” value (totarol 0.005%, 24 h) was 0.296, the Inoculation cfu/ml (totarol 0.01%, 0 h) was 4.1 × 10^5 cfu/ml and the “OD, average of 3 measurements” value (totarol 0.01%, 0 h) was 0.302. For the same molecule, the Inoculation cfu/ml (totarol 0.01%, 8 h) was 0 cfu/ml, the “OD, average of 3 measurements” value (totarol 0.01%, 8 h) was 0.419 and the Inoculation cfu/ml (totarol 0.01%, 16 h) was 0 cfu/ml. For the same molecule, the “OD, average of 3 measurements” value (totarol 0.01%, 16 h) was 0.368, the Inoculation cfu/ml (totarol 0.01%, 24 h) was 0 cfu/ml and the “OD, average of 3 measurements” value (totarol 0.01%, 24 h) was 0.306. The Inoculation cfu/ml (totarol 0.02%, 0 h) was 3.1 × 10^5 cfu/ml, the “OD, average of 3 measurements” value (totarol 0.02%, 0 h) was 0.322 and the Inoculation cfu/ml (totarol 0.02%, 8 h) was 0 cfu/ml. For the same molecule, the “OD, average of 3 measurements” value (totarol 0.02%, 8 h) was 0.384, the Inoculation cfu/ml (totarol 0.02%, 16 h) was 0 cfu/ml and the “OD, average of 3 measurements” value (totarol 0.02%, 16 h) was 0.374. For the same molecule, the Inoculation cfu/ml (totarol 0.02%, 24 h) was 0 cfu/ml, the “OD, average of 3 measurements” value (totarol 0.02%, 24 h) was 0.371 and the Inoculation cfu/ml (totarol 0.04%, 0 h) was 2.6 × 10^5 cfu/ml. For the same molecule, the “OD, average of 3 measurements” value (totarol 0.04%, 0 h) was 0.552, the Inoculation cfu/ml (totarol 0.04%, 8 h) was 0 cfu/ml and the “OD, average of 3 measurements” value (totarol 0.04%, 8 h) was 0.667. For the same molecule, the Inoculation cfu/ml (totarol 0.04%, 16 h) was 0 cfu/ml, the “OD, average of 3 measurements” value (totarol 0.04%, 16 h) was 0.555 and the Inoculation cfu/ml (totarol 0.04%, 24 h) was 0 cfu/ml. For the same molecule, the “OD, average of 3 measurements” value (totarol 0.04%, 24 h) was 0.538, the Inoculation cfu/ml (totarol 0.08%, 0 h) was 3.2 × 10^5 cfu/ml and the “OD, average of 3 measurements” value (totarol 0.08%, 0 h) was 0.448. For the same molecule, the Inoculation cfu/ml (totarol 0.08%, 8 h) was 0 cfu/ml, the “OD, average of 3 measurements” value (totarol 0.08%, 8 h) was 0.539 and the Inoculation cfu/ml (totarol 0.08%, 16 h) was 0 cfu/ml. For the same molecule, the “OD, average of 3 measurements” value (totarol 0.08%, 16 h) was 0.499, the Inoculation cfu/ml (totarol 0.08%, 24 h) was 0 cfu/ml and the “OD, average of 3 measurements” value (totarol 0.08%, 24 h) was 0.491. The Inoculation cfu/ml (totarol 0.16%, 0 h) was 6 × 10^5 cfu/ml, the “OD, average of 3 measurements” value (totarol 0.16%, 0 h) was 0.638 and the Inoculation cfu/ml (totarol 0.16%, 8 h) was 0 cfu/ml. For the same molecule, the “OD, average of 3 measurements” value (totarol 0.16%, 8 h) was 0.651, the Inoculation cfu/ml (totarol 0.16%, 16 h) was 0 cfu/ml and the “OD, average of 3 measurements” value (totarol 0.16%, 16 h) was 0.510. For the same molecule, the Inoculation cfu/ml (totarol 0.16%, 24 h) was 0 cfu/ml and the “OD, average of 3 measurements” value (totarol 0.16%, 24 h) was 0.369.
